What was measured:
apomorphine = assay: Determination of central antiemetic activity (apomorphine vomiting); assay type: in vivo, Beagle dogs; conditions: 1 mg/kg intramuscular; for Antiemetic effect /22 (average number of vomitings for two dogs): 30 min before 0.1 mg/kg apomorphine s.c., counted 30 min, controls 22
Protocol: These tests were carried out on adult Beagle dogs with a weight of 7 to 12 kg and which had gone without food for 18 hours. The dogs receive a dose of 1 mg/kg (0.1 ml/kg) of the compound according to the invention by intramuscular injection. 30 minutes later, 0.1 mg/kg (0.1 ml/kg) of apomorphine is administered to them subcutaneously as a central compound. The vomitings during the 30 minutes following the injection of apomorphine are counted. For two dogs serving as controls and receiving only the apomorphine 22 vomitings were counted. […] The results were confirmed by alternate tests by resuming these tests and interchanging the control dogs and the dogs on which the compounds according to the invention were previously tried.
The results relating to the toxicity and the central antiemetic activity of the compounds given hereinbefore are stated clearly in the following Table. The antiemetic activity is expressed in the form of the average number of vomitings for two dogs and is to be compared with the number 22 obtained with the control animals.

[1] = Determination of acute toxicity (LD50), intravenous, male mice; conditions: mouse, in vivo, 5 mice per batch, 6 days
Protocol: The acute toxicity of the compounds according to the invention was determined on male mice whose weight varied between 24 and 26 g. The compounds are administered intravenously in solution form and at the rate of 0.5 ml per 20 g of body weight, by varying the concentration of the injected solution.
Each compound is tested on a batch of 5 mice which are examined for 6 days following the injection.

cornea of rabbits = assay: Local anesthetic activity by Regnier's method; assay type: in vivo; conditions: in words
Protocol: This activity was measured on the cornea of rabbits by Regnier's method, described on particular in "Principes de la pharmacodynamie," pp. 204-206, Masson (1959).

pentetrazole = assay: Anticonvulsive activity (pentetrazole convulsions); assay type: in vivo, mice; conditions: 50 mg/kg i.p., pentetrazole 100 mg/kg i.p.
Protocol: The compounds according to the invention were tested for their anticonvulsive activity by following the procedure described hereinafter.
Each compound is administered intraperitoneally to a batch of mice at the rate of 50 mg of compound per kilogram of body weight. 30 minutes later the mice receive, still intraperitoneally, 100 mg/kg of pentetrazole.
The time of appearance of the first convulsions (clonic convulsions), that of the tonic convulsions (hyperextension) and the death of the mice is then measured. The injections of pentetrazole are carried out comparatively on control animals.

[2] = Solubility remark in the Toxicity column; assay type: physicochemical; conditions: in words

SMILES	Antiemetic effect /22 (average number of vomitings for two dogs) (apomorphine) [vomitings]	LD50 at 144 h [1] [mg/kg]	other results
COc1ccc(Cl)cc1S(=O)(=O)NCCN(C)C [Ref. k]	22	> 100	–
COc1cc(N)c(Cl)cc1S(=O)(=O)NCCCN1CCOCC1 [Ref. j]	22	> 100	–
COc1cc(N)c(Cl)cc1S(=O)(=O)NCCCN1CCCCC1 [Ref. o]	–	80 to 100	–
CCN(CC)CCNS(=O)(=O)c1ccc([N+](=O)[O-])cc1OC	15	> 100	–
CCN(CC)CCNS(=O)(=O)c1ccc(N)cc1OC [Ref. b, 2-methoxy-4-amino-N-(2-diethylaminoethyl)benzenesulphonamide]	22	> 100	local anesthetic action (cornea of rabbits): a certain local anesthetic action
CCN(CC)CCCNS(=O)(=O)c1cc(Cl)c(N)cc1OC [Ref. i, 2-methoxy-4-amino-5-chloro-N-(3-diethylaminopropyl)benzenesulphonamide]	3	117	mice dead at the end of the test (of five in the batch) (pentetrazole; of the five mice): three; lethalness (pentetrazole; in words): a decrease in the lethalness; antiemetic activity (apomorphine; in words, apomorphine 0.1 mg/kg s.c.): excellent
CCN(CC)CCCNS(=O)(=O)c1cc(Cl)ccc1OC [Ref. m]	12	–	solubility (printed in Toxicity column) [2]: insoluble
COc1ccc(S(N)(=O)=O)cc1S(=O)(=O)NCCN(C)C [Ref. n]	–	> 100	–
COc1cc([N+](=O)[O-])c(Cl)cc1S(=O)(=O)NCCN1CCCCC1 [Ref. d]	16	> 100	–
CCN(CC)CCNS(=O)(=O)c1cc(Cl)c(N)cc1OC [Ref. f]	13	50 to 100	–
COc1cc(N)c(Cl)cc1S(=O)(=O)NCCCN(C)C [Ref. h]	9	> 100	–
COc1cc(N)c(Cl)cc1S(=O)(=O)NCCN1CCCCC1 [Ref. g]	13	50 to 100	–
CCN(CC)CCCNS(=O)(=O)c1ccc(N)cc1OC [Ref. c, 2-methoxy-4-amino-N-(3-diethylaminopropyl)benzenesulphonamide]	17	50 to 100	local anesthetic action (cornea of rabbits): a certain local anesthetic action
CCN(CC)CCCNS(=O)(=O)c1cc(Cl)c([N+](=O)[O-])cc1OC [Ref. e]	–	> 100	–
CCN(CC)CCNS(=O)(=O)c1cc(Cl)ccc1OC [Ref. l]	8	> 100	–

— patent publication US4132786A, “N-Substituted 2-methoxybenzenesulphonamides and medicaments containing them” (priority 1975, dated 1979)
